Assay results as given in paper PMC6912803, “Sideritis Perfoliata (Subsp. Perfoliata) Nutritive Value and Its Potential Medicinal Properties” (Antioxidants, 2019).

Columns and labels:
mushroom tyrosinase = system: T1, mushroom tyrosinase; test: L-tyrosine oxidation, absorbance at […] nm over […] min; format: biochemical; parameters: reference not given here; conditions: 2 mM L-tyrosine stock (110 µL added), potassium phosphate pH 6.5, room temperature, 5 min preincubation
T1 construct: gene PPO3; native commercial mushroom tyrosinase (Sigma-Aldrich), isoenzyme mixture

[1] = biological target: T2, Porcine pancreatic elastase (PPE) (Sus scrofa, UniProt P00772); test: N-succinyl-(Ala)3-p-nitroanilide hydrolysis, absorbance at […] nm; format: biochemical; conditions: read-out: Positive Control MIC/IC50 ± SD (μg/mL) (converted)
T2 construct: gene CELA1; mature active protease
T2 sequence (P00772 27-266): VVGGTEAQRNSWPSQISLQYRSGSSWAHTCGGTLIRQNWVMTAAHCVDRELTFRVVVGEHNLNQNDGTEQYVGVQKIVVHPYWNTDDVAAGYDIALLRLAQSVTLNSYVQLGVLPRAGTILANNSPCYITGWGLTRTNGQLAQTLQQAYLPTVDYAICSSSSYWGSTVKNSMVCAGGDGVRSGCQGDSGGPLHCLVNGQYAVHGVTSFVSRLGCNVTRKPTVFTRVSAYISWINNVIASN

Row | Positive Control MIC/IC50 ± SD (mushroom tyrosinase) | IC50 [1] | SMILES
1 | 2.84 ± 0.23 µg/mL | – | O=c1cc(CO)occ1O [kojic acid]
2 | – | 40.4 µM | C[C@H]1[C@H](C)CC[C@]2(C(=O)O)CC[C@]3(C)C(=CC[C@@H]4[C@@]5(C)CC[C@H](O)C(C)(C)[C@@H]5CC[C@]43C)[C@H]12 [ursolic acid]
